Experimental data as given in ChEMBL document CHEMBL6103654, “Design, Biological Characterization, and Discovery of Capromorelin Derivatives as Oral Growth Hormone Secretagogue Receptor Type 1a Agonist for the Treatment of Growth Hormone Deficiency” (J Med Chem, 2025).
Active and inactive are the calls of the source. No cut-off for these calls is given here.

What was measured:
[1] = tested on: CHO; experiment: Agonist activity at human GHSR expressed in CHO cells at maximum concentration incubated for 60 min by FLIPR assay relative to control; type: cell-based; conditions: filed as agonist
[2] = tested on: CHO; experiment: Agonist activity at monkey GHSR expressed in CHO cells at maximum concentration incubated for 60 min by FLIPR assay relative to control; type: cell-based; conditions: Macaca mulatta, filed as agonist
[3] = Agonist activity at dog GHSR expressed in CHO cells incubated for 60 min by FLIPR assay; type: cell-based; conditions: 1 h
[4] = Tmax in male Sprague-Dawley rat at 2 mg/kg, po administered as single dose measured after 4 hrs; type: ADME, organism-based; conditions: in vivo
[5] = AUC in male Sprague-Dawley rat at 2 mg/kg, po administered as single dose measured after 4 hrs; type: ADME, organism-based; conditions: in vivo
[6] = tested on: Rattus norvegicus; experiment: Induction of growth hormone level in Juvenile Sprague-Dawley rat blood at 0.1 mg/kg, po administered as single dose measured immediately by ELISA method (reference value: 28.5+/-8.7 ng/mL); type: functional
[7] = tested on: Rattus norvegicus; experiment: Induction of growth hormone level in Juvenile Sprague-Dawley rat blood at 0.1 mg/kg, po administered as single dose measured after 40 mins by ELISA method (reference value: 40.1+/-11.0 ng/mL); type: functional
[8] = tested on: Rattus norvegicus; experiment: Induction of growth hormone level in Juvenile Sprague-Dawley rat blood at 0.1 mg/kg, po administered as single dose measured after 1 hr by ELISA method (reference value: 45.2+/-12.5 ng/mL); type: functional
[9] = tested on: Rattus norvegicus; experiment: Induction of growth hormone level in Juvenile Sprague-Dawley rat blood at 0.2 mg/kg, po administered as single dose measured after 10 mins by ELISA method (reference value: 23.2+/-5.6 ng/mL); type: functional
[10] = tested on: Rattus norvegicus; experiment: Induction of growth hormone level in Juvenile Sprague-Dawley rat blood at 0.2 mg/kg, po administered as single dose measured after 40 mins by ELISA method (reference value: 40.1+/-11.0 ng/mL); type: functional
[11] = tested on: Rattus norvegicus; experiment: Induction of growth hormone level in Juvenile Sprague-Dawley rat blood at 0.5 mg/kg, po administered as single dose measured after 40 mins by ELISA method (reference value: 40.1+/-11.0 ng/mL); type: functional
[12] = tested on: Rattus norvegicus; experiment: Induction of growth hormone level in Juvenile Sprague-Dawley rat blood at 0.5 mg/kg, po administered as single dose measured after 2 hrs by ELISA method (reference value: 26.5+/-7.3 ng/mL); type: functional
[13] = tested on: Rattus norvegicus; experiment: Induction of growth hormone level in Juvenile Sprague-Dawley rat blood by measuring AUC(0 to 40 mins) at 0.5 mg/kg, po administered as single dose by ELISA method (reference value: 20.2+/-4.3 ng/mL); type: functional, organism-based
[14] = tested on: Rattus norvegicus; experiment: Induction of growth hormone level in adult Sprague-Dawley rat blood at 0.1 mg/kg, po administered as single dose measured after 10 mins by ELISA method (reference value: 13.7+/-7.2 ng/mL); type: functional
[15] = tested on: Rattus norvegicus; experiment: Induction of growth hormone level in adult Sprague-Dawley rat blood by measuring AUC(0 to 40 mins) at 0.5 mg/kg, po administered as single dose by ELISA method (reference value: 7.0+/-1.7 ng/mL); type: functional, organism-based
[16] = tested on: Rattus norvegicus; experiment: Induction of growth hormone level in adult Sprague-Dawley rat blood at 0.2 mg/kg, po administered as single dose measured after 20 mins by ELISA method (reference value: 4.9+/-1.1 ng/mL); type: functional
[17] = tested on: Rattus norvegicus; experiment: Induction of growth hormone level in adult Sprague-Dawley rat blood at 0.5 mg/kg, po administered as single dose measured after 20 mins by ELISA method (reference value: 4.9+/-1.1 ng/mL); type: functional
[18] = tested on: Rattus norvegicus; experiment: Induction of growth hormone level in adult Sprague-Dawley rat blood at 0.5 mg/kg, po administered as single dose measured after 40 mins by ELISA method (reference value: 14.4+/-6.9 ng/mL); type: functional
[19] = tested on: Rattus norvegicus; experiment: Induction of growth hormone level in 6 week-old male Sprague-Dawley rat assessed as increase in body weight at 2.5 mg/kg, po measured after 10 days; type: functional, organism-based; conditions: time 10.0 day
[20] = Cmax in male dog at 2 mg/kg, po administered as single dose measured after 4 hrs; type: ADME, organism-based, Canis lupus familiaris; conditions: in vivo
[21] = Oral bioavailability in male dog at 2 mg/kg administered as single dose measured after 4 hrs; type: ADME, organism-based, Canis lupus familiaris; conditions: in vivo
[22] = Tmax in male mouse at 2 mg/kg, po administered as single dose measured after 4 hrs; type: ADME, organism-based; conditions: in vivo
[23] = Metabolic stability in human liver microsome assessed as hepatic clearance at 1 uM measured upto 60 mins in presence of NADPH by LC-MS/MS analysis; type: ADME; conditions: liver microsomes, read-out: CLH
[24] = Metabolic stability in mouse liver microsome assessed as half life at 1 uM measured upto 60 mins in presence of NADPH by LC-MS/MS analysis; type: ADME; conditions: liver microsomes
[25] = Plasma protein binding in human assessed as unbound fraction measured after 6 hrs by dialysis method; type: ADME, cell-free
[26] = Plasma protein binding in rat assessed as unbound fraction measured after 6 hrs by dialysis method; type: ADME, cell-free
[27] = target: Cytochrome P450 2C9 (Homo sapiens, UniProt P11712); experiment: Inhibition of CYP2C9 in human liver microsome incubated for 5 min in presence of NADPH by UPLC-MS/MS analysis; type: ADME, microsomes
Cytochrome P450 2C9, sequence (P11712 whole entry): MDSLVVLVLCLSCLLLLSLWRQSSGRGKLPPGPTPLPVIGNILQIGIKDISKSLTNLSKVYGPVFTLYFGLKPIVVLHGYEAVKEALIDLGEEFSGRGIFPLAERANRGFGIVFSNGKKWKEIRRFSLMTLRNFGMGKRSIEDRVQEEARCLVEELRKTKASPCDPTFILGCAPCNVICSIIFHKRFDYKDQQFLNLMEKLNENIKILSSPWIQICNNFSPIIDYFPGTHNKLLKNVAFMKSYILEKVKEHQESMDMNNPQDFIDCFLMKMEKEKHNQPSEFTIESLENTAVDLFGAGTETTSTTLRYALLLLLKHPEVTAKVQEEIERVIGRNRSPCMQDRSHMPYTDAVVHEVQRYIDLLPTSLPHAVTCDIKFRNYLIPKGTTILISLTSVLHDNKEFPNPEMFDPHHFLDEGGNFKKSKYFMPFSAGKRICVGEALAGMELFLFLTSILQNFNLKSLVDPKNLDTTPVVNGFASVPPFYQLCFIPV

[28] = target: Cytochrome P450 2C19 (Homo sapiens, UniProt P33261); experiment: Inhibition of CYP2C19 in human liver microsome incubated for 5 min in presence of NADPH by UPLC-MS/MS analysis; type: ADME, microsomes
Cytochrome P450 2C19, sequence (P33261 whole entry): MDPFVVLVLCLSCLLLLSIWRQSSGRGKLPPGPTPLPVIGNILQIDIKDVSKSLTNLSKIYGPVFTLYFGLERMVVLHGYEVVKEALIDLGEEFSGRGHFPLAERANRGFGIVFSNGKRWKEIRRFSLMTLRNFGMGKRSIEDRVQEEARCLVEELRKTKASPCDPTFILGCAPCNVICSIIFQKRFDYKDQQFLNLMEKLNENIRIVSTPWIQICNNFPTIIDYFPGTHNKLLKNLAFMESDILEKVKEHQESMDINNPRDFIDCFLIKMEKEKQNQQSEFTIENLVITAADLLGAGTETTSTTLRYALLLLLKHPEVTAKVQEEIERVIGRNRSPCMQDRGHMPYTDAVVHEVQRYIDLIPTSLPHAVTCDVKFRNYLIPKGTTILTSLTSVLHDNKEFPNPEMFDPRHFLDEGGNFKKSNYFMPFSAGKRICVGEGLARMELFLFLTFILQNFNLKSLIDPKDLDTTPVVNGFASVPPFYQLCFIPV

[29] = target: T1, Cytochrome P450 1A2 (Homo sapiens, UniProt P05177); experiment: Inhibition of CYP1A2 in human liver microsome incubated for 5 min in presence of NADPH by UPLC-MS/MS analysis; type: ADME, microsomes
T1 sequence (P05177 whole entry): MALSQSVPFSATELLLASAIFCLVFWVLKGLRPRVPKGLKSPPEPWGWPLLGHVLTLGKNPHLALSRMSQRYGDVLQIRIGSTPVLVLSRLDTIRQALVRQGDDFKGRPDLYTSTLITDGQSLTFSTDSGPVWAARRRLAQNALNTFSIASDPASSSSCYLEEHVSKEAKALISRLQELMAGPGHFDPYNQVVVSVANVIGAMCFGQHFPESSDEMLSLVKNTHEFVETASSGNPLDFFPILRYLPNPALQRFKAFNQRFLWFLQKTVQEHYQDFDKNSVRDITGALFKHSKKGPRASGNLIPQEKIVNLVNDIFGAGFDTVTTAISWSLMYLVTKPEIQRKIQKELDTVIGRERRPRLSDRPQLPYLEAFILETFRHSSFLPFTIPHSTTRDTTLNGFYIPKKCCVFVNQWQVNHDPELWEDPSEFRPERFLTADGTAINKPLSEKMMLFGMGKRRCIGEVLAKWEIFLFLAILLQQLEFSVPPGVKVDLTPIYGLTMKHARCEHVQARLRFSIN

[30] = tested on: Rattus norvegicus; experiment: In vivo agonist activity at GSHR in Sprague-Dawley rat assessed as increase in food consumption at 10 to 100 mg/kg, po administered once daily for 14 days; type: functional, organism-based; conditions: dose 10-100 mg/kg, time 14.0 day

EC50 [3]: 43 pM | Tmax [4]: 15 min | AUC at 4 h [5]: 188 ng·h/mL | Cmax [20]: 200 ng/mL | bioavailability [21]: 43.6% | Tmax [22]: 15 min | CLint scaled at 1 µM [23]: 127 mL/min/kg | half-life at 1 µM [24]: 4.2 min | fraction unbound at 6 h [25]: 0.695 | fraction unbound at 6 h [26]: 0.673 | IC50 [27]: > 30 µM | IC50 [28]: > 30 µM | IC50 [29]: > 30 µM
Structure (SMILES): CC(C)(N)C(=O)N[C@H](COCc1ccccc1)C(=O)N1CCC2=NN(C3CC3)C(=O)[C@]2(Cc2ccccc2)C1
Activity [1]: 152% | Activity [2]: 106% | Activity [6]: 31.1 ng/mL | Activity [7]: 74.5 ng/mL | Activity [8]: 37.8 ng/mL | Activity [9]: 200.8 ng/mL | Activity [10]: 66.5 ng/mL | Activity [11]: 74.6 ng/mL | Activity [12]: 34.4 ng/mL | AUC [13]: 110 ng·h/mL | Activity [14]: 216.1 ng/mL | AUC [15]: 62.8 ng·h/mL | Activity [16]: 73.2 ng/mL | Activity [17]: 68.8 ng/mL | Activity [18]: 27.8 ng/mL | Activity [19]: Active | Activity [30]: Active
